Results on ten compounds are retold here after ChEMBL document CHEMBL1201862, “PubChem BioAssay data set” (2004).

Some test systems named below: CCRF-CEM; TK-10; DU-145; COLO 205; OVCAR-5; HCC 2998; ACHN; UACC-257; RPMI-8226; IGROV-1; OVCAR-8; SK-OV-3; MDA-MB-231; A549; OVCAR-4; HL-60; SF-539; HCT-116; T47D; NCI-H23.
Common to all, as to assay: DTP human tumour cell line panel, 48 h

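Following 48 hours of exposure in 96-well plates, responses at five concentrations were used to interpolate endpoints linearly. Here, GI50 denotes the concentration required for 50% inhibition of growth.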 Calls of active or inactive are those of the source. No stated cut-off is given here; in the data, active = GI50 up to about 1.1 µM and inactive = higher.

Consider `Cc1ccc(-c2nnc(-c3ccc4ccccc4c3)o2)cc1`, for which the GI50 in the assay with CCRF-CEM is 3.55 µM (inactive); in the assay with TK-10, 7.94 µM (inactive); with DU-145 it was 18.2 µM (inactive); in the assay with COLO 205, > 100 µM (inactive); in the assay on OVCAR-5, > 61.8 µM (inactive); in the assay with HCC 2998, > 100 µM (inactive). Moreover, the GI50 is > 100 µM (inactive) in the assay with ACHN; 22.2 µM (inactive) in the assay with UACC-257; 6.78 µM (inactive) with RPMI-8226; > 91.2 µM (inactive) in the assay on IGROV-1; 12.4 µM (inactive) in the assay on OVCAR-8; 56.2 µM (inactive) in the assay with SK-OV-3. Also, the GI50 was 25.8 µM (inactive) with MDA-MB-231; > 100 µM (inactive) in the assay on A549; 40.3 µM (inactive) in the assay on OVCAR-4; 2.93 µM (inactive) in the assay on HL-60; 19.6 µM (inactive) in the assay with SF-539; 23.6 µM (inactive) in the assay with HCT-116. Further, the values for the GI50 in the assay with T47D and in the assay with NCI-H23 were 19.2 µM (inactive) and > 100 µM (inactive), respectively.

As for `CC(Cc1ccc(O)c(O)c1)C(C)Cc1ccc(O)c(O)c1` (stereo not given) [NORDIHYDROGUAIARETIC ACID], the GI50 was 4.38 µM (inactive) with CCRF-CEM; 23.6 µM (inactive) with TK-10; 18.8 µM (inactive) with DU-145; 18.7 µM (inactive) with COLO 205; 21.2 µM (inactive) in the assay on OVCAR-5; 19.1 µM (inactive) in the assay with HCC 2998. Besides, the GI50 in the assay on ACHN is 16.1 µM (inactive); in the assay with UACC-257, 18.2 µM (inactive); with RPMI-8226, 10.1 µM (inactive); in the assay with IGROV-1, 16.9 µM (inactive); in the assay with OVCAR-8, 17.4 µM (inactive); in the assay on SK-OV-3 it was 21.5 µM (inactive). The GI50 is > 39.1 µM (inactive) with MDA-MB-231; 33 µM (inactive) with A549; 14.4 µM (inactive) in the assay on OVCAR-4; 2.99 µM (inactive) in the assay on HL-60; 17.5 µM (inactive) with SF-539; 17.3 µM (inactive) in the assay on HCT-116. In addition, the GI50 was 18.4 µM (inactive) in the assay with T47D and 20.1 µM (inactive) in the assay with NCI-H23.

Turning to `C=CC(Br)(CBr)CCC(Br)C(C)(C)Cl` (stereo not given), the GI50 with CCRF-CEM was 2.22 µM (inactive); in the assay on TK-10, 2.72 µM (inactive); in the assay with DU-145, 3.37 µM (inactive); in the assay with COLO 205 it was 2.21 µM (inactive); in the assay on OVCAR-5, 7.11 µM (inactive); in the assay with HCC 2998 it was 6.22 µM (inactive). Also, the GI50 with ACHN is 2.42 µM (inactive); in the assay on UACC-257 it was 3.87 µM (inactive); in the assay on RPMI-8226, 0.579 µM (active); in the assay on IGROV-1, 5.31 µM (inactive); in the assay with OVCAR-8 it was 4.42 µM (inactive); in the assay on SK-OV-3, 16.3 µM (inactive). For the same compound, the GI50 was 2.49 µM (inactive) with MDA-MB-231; 11.5 µM (inactive) with A549; 4.08 µM (inactive) in the assay with OVCAR-4; 0.807 µM (active) in the assay with HL-60; 1.99 µM (inactive) in the assay on SF-539; 1.64 µM (inactive) in the assay with HCT-116. The GI50 is 1.67 µM (inactive) with T47D and 6.31 µM (inactive) with NCI-H23.

Take `C1CSCCCSCCCSCCCSCCCSC1`: the GI50 in the assay on CCRF-CEM was 8.55 µM (inactive); in the assay on TK-10 it was 37.2 µM (inactive); with DU-145 it was 46.5 µM (inactive); in the assay with COLO 205 it was 13.1 µM (inactive); with OVCAR-5 it was 57.8 µM (inactive); in the assay on HCC 2998, 38 µM (inactive). Besides, the GI50 with ACHN is 29.2 µM (inactive); in the assay on UACC-257, 25.5 µM (inactive); in the assay with RPMI-8226 it was 5.32 µM (inactive); in the assay on IGROV-1, 31.1 µM (inactive); with OVCAR-8, 29 µM (inactive); in the assay on SK-OV-3, 34.4 µM (inactive). Besides, the GI50 is 29.2 µM (inactive) in the assay on MDA-MB-231; 28.5 µM (inactive) in the assay on A549; 22.5 µM (inactive) with OVCAR-4; 14.2 µM (inactive) in the assay on HL-60; 43.7 µM (inactive) with SF-539; 31.2 µM (inactive) in the assay with HCT-116. Also, the GI50 was 17.2 µM (inactive) in the assay on T47D and 26.5 µM (inactive) with NCI-H23.

`N/C(=N\N=C\c1c[nH]c2ccccc12)Nc1ccccc1`: the GI50 was 0.918 µM (active) in the assay with CCRF-CEM; 1.28 µM (inactive) in the assay on TK-10; 0.314 µM (active) in the assay on DU-145; 0.188 µM (active) in the assay with COLO 205; 3.13 µM (inactive) in the assay on OVCAR-5; 0.594 µM (active) in the assay on HCC 2998. Moreover, the GI50 in the assay with ACHN is 0.671 µM (active); in the assay with UACC-257, 0.304 µM (active); in the assay on RPMI-8226, 1 µM (active); in the assay on IGROV-1 it was 0.865 µM (active); with OVCAR-8 it was 0.41 µM (active); in the assay with SK-OV-3, 0.418 µM (active). For the same compound, the GI50 with MDA-MB-231 is 0.624 µM (active); in the assay on A549, 0.455 µM (active); with OVCAR-4, 1.58 µM (inactive); in the assay on HL-60, 0.144 µM (active); in the assay on SF-539 it was 0.332 µM (active); with HCT-116, 0.214 µM (active). Further, the figures for the GI50 in the assay on T47D and in the assay on NCI-H23 were 1.36 µM (inactive) and 0.308 µM (active), respectively.

For `C[C@]12Cc3cnc(-c4ccccc4)nc3C[C@@H]1CC[C@@H]1[C@@H]2CC[C@@]2(C)[C@H]1CC[C@]2(C)O`, the GI50 in the assay with CCRF-CEM is 13.9 µM (inactive); in the assay with TK-10, 23.2 µM (inactive); in the assay with DU-145, 17.9 µM (inactive); in the assay on COLO 205 it was 11.7 µM (inactive); in the assay with OVCAR-5, 14.3 µM (inactive); in the assay with HCC 2998, 14.2 µM (inactive). In addition, the GI50 with ACHN is 14.2 µM (inactive); in the assay on UACC-257 it was 20.2 µM (inactive); in the assay on RPMI-8226 it was 5.06 µM (inactive); in the assay on IGROV-1, 19.7 µM (inactive); in the assay with OVCAR-8 it was 14.4 µM (inactive); in the assay on SK-OV-3, 18 µM (inactive). The GI50 with MDA-MB-231 was 18.8 µM (inactive); in the assay with A549, 12.8 µM (inactive); in the assay with OVCAR-4, 14.4 µM (inactive); with HL-60, 17.9 µM (inactive); in the assay on SF-539, 1.33 µM (inactive); in the assay on HCT-116, 17.4 µM (inactive). Also, the values for the GI50 with T47D and in the assay on NCI-H23 were 11 µM (inactive) and 17.6 µM (inactive), respectively.

For `N=C(N)c1ccc(/N=N\c2c(O)c(C(=O)Nc3ccccc3)cc3ccccc23)cc1`, the GI50 is 2.33 µM (inactive) in the assay with CCRF-CEM; > 44.5 µM (inactive) in the assay on TK-10; > 100 µM (inactive) with DU-145; 29 µM (inactive) in the assay on COLO 205; 31.6 µM (inactive) in the assay with OVCAR-5; > 37.6 µM (inactive) in the assay with HCC 2998. Moreover, the GI50 with ACHN was 23.3 µM (inactive); in the assay with UACC-257, > 68.7 µM (inactive); in the assay on RPMI-8226, 4.6 µM (inactive); with IGROV-1 it was 18.7 µM (inactive); in the assay with OVCAR-8, 16.1 µM (inactive); in the assay with SK-OV-3 it was > 32.6 µM (inactive). Also, the GI50 was 8.04 µM (inactive) in the assay on MDA-MB-231; > 59.6 µM (inactive) in the assay on A549; 17.8 µM (inactive) in the assay on OVCAR-4; 7.98 µM (inactive) with HL-60; 21 µM (inactive) with SF-539; 3.3 µM (inactive) in the assay on HCT-116. For the same compound, the figures for the GI50 with T47D and in the assay with NCI-H23 were 17.4 µM (inactive) and 21.9 µM (inactive), respectively.

On to `CC(CCC(=O)O)C(=O)O` (stereo not given), for which the GI50 in the assay with CCRF-CEM, with TK-10, in the assay on DU-145, in the assay on COLO 205, in the assay on OVCAR-5 and with HCC 2998 was > 100 µM (inactive) throughout. Besides, the GI50 in the assay on ACHN, with UACC-257, with RPMI-8226, in the assay with IGROV-1, in the assay on OVCAR-8 and with SK-OV-3 was > 100 µM (inactive) each time. Further, the GI50 in the assay on MDA-MB-231, in the assay with A549, in the assay with OVCAR-4, in the assay with HL-60, with SF-539 and in the assay with HCT-116 was > 100 µM (inactive) each time. Also, the GI50 with T47D and with NCI-H23 was > 100 µM (inactive) throughout.

Turning to `Clc1cc2c(cc1Cl)CC(NCCN1CCCC1)CC2` (stereo not given), the GI50 in the assay with CCRF-CEM was 26.4 µM (inactive); in the assay on TK-10, 14.4 µM (inactive); in the assay with DU-145, 14.7 µM (inactive); in the assay with COLO 205, 3.07 µM (inactive); in the assay with OVCAR-5 it was 14.6 µM (inactive); in the assay on HCC 2998, 2.7 µM (inactive). Also, the GI50 with ACHN is 17.9 µM (inactive); with UACC-257, 7.82 µM (inactive); in the assay on RPMI-8226, 12.6 µM (inactive); with IGROV-1, 15.4 µM (inactive); with OVCAR-8 it was 16.7 µM (inactive); in the assay with SK-OV-3, 17.7 µM (inactive). The GI50 is 15.1 µM (inactive) in the assay with MDA-MB-231; 14.8 µM (inactive) in the assay with A549; 17.2 µM (inactive) with OVCAR-4; 14.6 µM (inactive) in the assay with HL-60; 13.6 µM (inactive) in the assay on SF-539; 12.9 µM (inactive) in the assay with HCT-116. Moreover, the GI50 is 10.4 µM (inactive) in the assay on T47D and 16 µM (inactive) in the assay with NCI-H23.

As for `CC(C)(C)OC(=O)N(CCCCNC(=O)C(F)(F)F)CCCNC(=O)C(F)(F)F`, the GI50 in the assay on CCRF-CEM, with TK-10, with DU-145, in the assay with COLO 205, with OVCAR-5 and in the assay with HCC 2998 was > 100 µM (inactive) each time. Also, the GI50 in the assay on ACHN, in the assay on UACC-257, with RPMI-8226, in the assay on IGROV-1, in the assay with OVCAR-8 and in the assay on SK-OV-3 was > 100 µM (inactive) in each case. The GI50 with MDA-MB-231 was > 100 µM (inactive); in the assay with A549, > 100 µM (inactive); with OVCAR-4, > 100 µM (inactive); with HL-60, 87.5 µM (inactive); in the assay with SF-539, > 100 µM (inactive); in the assay with HCT-116, > 100 µM (inactive). For the same compound, the GI50 in the assay with T47D and with NCI-H23 was > 100 µM (inactive) each time.
